This is an account of results in ChEMBL document CHEMBL4261602, “Tri-armed ligands of G-quadruplex on heteroarene-fused anthraquinone scaffolds: Design, synthesis and pre-screening of biological properties” (Eur J Med Chem, 2018).

Data set [1] has as its system L1210. As to the kind of experiment: Antiproliferative activity in mouse L1210 cells after 48 hrs by MTT assay. Particulars: L1210, 48 h; call rule not given here. The class given is functional, cell-based.
Data set [2] concerns HeLa. Kind of data set: Antiproliferative activity in human HeLa cells after 72 hrs by MTT assay. The class given is functional, cell-based.
In data set [3] the test system is Quadruplex DNA. Kind of data set: Stabilization of human FAM-5'-d(AGGGTTAGGGTTAGGGTTAGGG)-3'-BHQ1 telomeric G4 quadruplex DNA assessed as change in melting temperature at 1 uM in presence of 50 fold excess of competitor ds26 oligonucleotide DNA by FRET assay. The class given is nucleic-acid assay.
Data set [4] relates to CCRF-CEM. Kind of data set: Antiproliferative activity in human CEM cells after 72 hrs by MTT assay. The class given is functional, cell-based. (Formazan colour is commonly taken as a measure of viable cells.)
The nature of data set [5]: Selectivity ratio of Kb for human FAM-5'-d(AGGGTTAGGGTTAGGGTTAGGG)-3'-BHQ1 telomeric G4 quadruplex DNA to Kb for d(CAATCGGATCGAATTCGATCCGATTG) DNA (unknown origin).
The subject of data set [6] is Quadruplex DNA. As to the kind of experiment: Stabilization of human FAM-5'-d(AGGGTTAGGGTTAGGGTTAGGG)-3'-BHQ1 telomeric G4 quadruplex DNA assessed as change in melting temperature at 1 uM by FRET assay. The class given is nucleic-acid assay.
In data set [7] the test system is Quadruplex DNA. Kind of data set: Stabilization of human FAM-5'-d(AGGGTTAGGGTTAGGGTTAGGG)-3'-BHQ1 telomeric G4 quadruplex DNA assessed as binding constant at 1 uM by FRET assay. The data set is classed as nucleic-acid assay.
Data set [8] can be described thus: Stabilization of d(CAATCGGATCGAATTCGATCCGATTG) DNA (unknown origin) assessed as binding constant at 1 uM by FRET assay.
Data set [9] can be described thus: Drug uptake in human K562 cells at 1 uM within 15 mins by flow cytometry analysis. The data set is classed as ADME, cell-based. The conditions noted are these: k562, 0.25 h. (In general: Flow cytometry measures light scatter and fluorescence of single cells or particles in a stream.)

With `N=C(N)NCCCNC(=O)c1cc2c(NCCOCCN)c3c(c(NCCOCCN)c2s1)C(=O)c1ccccc1C3=O`, the IC50 turned out to be 10 µM in [1], 9 µM in data set [2] and 11 µM in data set [4]. In addition, the ΔTm worked out at 14 °C in data set [3] and 20 °C in data set [6]. Further, the Selectivity ratio in data set [5] was 950. Besides, the figures for the Kb in [7] and in data set [8] were 29 ×10⁶ /M and 0.03 ×10⁶ /M, respectively.
On to `N=C(N)NCCNc1c2c(c(NCCNC(=N)N)c3sccc13)C(=O)c1ccccc1C2=O`, for which the Drug uptake result in data set [9] is reported as “Active”. The compound further yielded an IC50 in [2] of 13 µM. In addition, the ΔTm was 1 °C in data set [3] and 11 °C in data set [6]. Besides, in data set [5], the Selectivity ratio is 60. For the same compound, the Kb in data set [7] was determined as 6 ×10⁶ /M; in [8] it was 0.1 ×10⁶ /M.
In the case of `N=C(N)NCCCNC(=O)c1cc2c(NCCNC(=N)N)c3c(c(NCCNC(=N)N)c2s1)C(=O)c1ccccc1C3=O`, the Drug uptake entry in data set [9] is listed as “Active”. Further, the IC50 in [1] was 13 µM; in [2], 15 µM; in [4], 13 µM. Also, the ΔTm in data set [3] was 19 °C; in data set [6], 20.5 °C. In data set [5], the Selectivity ratio amounted to 1300. Besides, the Kb in data set [7] is 40 ×10⁶ /M; in data set [8] it was 0.03 ×10⁶ /M.
For the compound `N=C(N)NCCCNC(=O)c1cc2c(NCCCNC(=N)N)c3c(c(NCCCNC(=N)N)c2o1)C(=O)c1ccccc1C3=O`, the IC50 in [1] stood at 18 µM; in [2] it was 17 µM; in [4], 17 µM. Further, the ΔTm came out at 24 °C in [3] and 25 °C in data set [6]. Besides, the Selectivity ratio in data set [5] is 4550. For the same compound, the Kb in data set [7] was found to be 91 ×10⁶ /M; in [8], 0.02 ×10⁶ /M.
`N=C(N)NCCNC(=O)c1cc2c(NCCCCCN)c3c(c(NCCCCCN)c2o1)C(=O)c1ccccc1C3=O`: the IC50 was determined as 19 µM in data set [1], 11 µM in [2] and 18 µM in data set [4]. For the same compound, the ΔTm in data set [3] was found to be 13 °C; in data set [6], 18 °C. In addition, the Selectivity ratio in data set [5] came to 850. The Kb in data set [7] was determined as 22 ×10⁶ /M; in data set [8], 0.03 ×10⁶ /M.
Turning to `N=C(N)NCCCNC(=O)c1cc2c(NCCCCCN)c3c(c(NCCCCCN)c2o1)C(=O)c1ccccc1C3=O`, the IC50 in data set [1] amounted to 17 µM; in data set [2] it was 14 µM; in [4], 15 µM. Moreover, the ΔTm in [3] was determined as 15 °C; in data set [6] it was 18 °C. Also, in [5], the Selectivity ratio came out at 1500. Besides, the Kb in data set [7] is 22 ×10⁶ /M; in [8] it was 0.01 ×10⁶ /M.
Turning to `N=C(N)NCCNC(=O)c1cc2c(NCCNC(=N)N)c3c(c(NCCNC(=N)N)c2s1)C(=O)c1ccccc1C3=O`, the IC50 came to 12 µM in data set [1], 18 µM in [2] and 16 µM in data set [4]. Also, the figures for the ΔTm in data set [3] and in data set [6] were 10 °C and 20 °C, respectively. Further, the Selectivity ratio in data set [5] came to 300. For the same compound, the Kb in data set [7] was 33 ×10⁶ /M; in data set [8], 0.1 ×10⁶ /M.
For the compound `N=C(N)NCCNC(=O)c1cc2c(NCCNC(=N)N)c3c(c(NCCNC(=N)N)c2o1)C(=O)c1ccccc1C3=O`, the IC50 in data set [1] came to 9 µM; in data set [2] it was 14 µM; in [4], 12 µM. Besides, the results for the ΔTm in data set [3] and in data set [6] were 20.3 °C and 21.3 °C, respectively. The Selectivity ratio in data set [5] came to 2300. In addition, the Kb in data set [7] worked out at 46 ×10⁶ /M; in data set [8], 0.02 ×10⁶ /M.
Consider `N=C(N)NCCCNC(=O)c1cc2c(NCCCCCN)c3c(c(NCCCCCN)c2s1)C(=O)c1ccccc1C3=O`, for which the Drug uptake result in data set [9] is “Active”. Moreover, the figures for the IC50 in [1], in [2] and in [4] were 19 µM, 12 µM and 21 µM, respectively. Also, the ΔTm was 18 °C in [3] and 21 °C in data set [6]. Besides, the Selectivity ratio in data set [5] worked out at 2800. Further, the Kb in data set [7] turned out to be 38 ×10⁶ /M; in data set [8], 0.01 ×10⁶ /M.
`N=C(N)NCCCNc1c2c(c(NCCCNC(=N)N)c3sc(C(=O)NCCNC(=N)N)cc13)C(=O)c1ccccc1C2=O`: the IC50 in [1] is 9 µM; in [2], 17 µM; in data set [4], 12 µM. The ΔTm in [3] and in data set [6] was 21 °C each time. In addition, the Kb in data set [7] stood at 44 ×10⁶ /M.
For the compound `N=C(N)NCCCNC(=O)c1cc2c(NCCCNC(=N)N)c3c(c(NCCCNC(=N)N)c2s1)C(=O)c1ccccc1C3=O`, the IC50 in [1] is 10 µM; in [2] it was 18 µM; in data set [4], 11 µM. Besides, the ΔTm was 17 °C in [3] and 22 °C in data set [6]. Moreover, in data set [5], the Selectivity ratio worked out at 1700. In addition, the Kb in data set [7] came to 47 ×10⁶ /M; in data set [8] it was 0.03 ×10⁶ /M.
On to `N=C(N)NCCCNC(=O)c1cc2c(NCCCCN)c3c(c(NCCCCN)c2s1)C(=O)c1ccccc1C3=O`, for which the IC50 in data set [1] is 12 µM; in data set [2] it was 11 µM; in [4], 16 µM. Also, the ΔTm in [3] worked out at 18 °C; in [6], 22 °C. The Selectivity ratio in data set [5] came to 2500. In addition, the results for the Kb in [7] and in data set [8] were 45 ×10⁶ /M and 0.02 ×10⁶ /M, respectively.

For orientation: IC50 means the point on the concentration scale where inhibition reaches its midpoint. A word on the ΔTm: it is the shift of the melting midpoint relative to a reference.
